Data from ChEMBL document CHEMBL1155936, “Allosteric FBPase inhibitors gain 10(5) times in potency when simultaneously binding two neighboring AMP sites” (Bioorg Med Chem Lett, 2008).

Assays:
[1] = target: T1, Fructose-1,6-bisphosphatase 1 (Homo sapiens, UniProt P09467); test: Inhibition of human liver fructose-1,6-bisphosphatase
T1 sequence (P09467 whole entry): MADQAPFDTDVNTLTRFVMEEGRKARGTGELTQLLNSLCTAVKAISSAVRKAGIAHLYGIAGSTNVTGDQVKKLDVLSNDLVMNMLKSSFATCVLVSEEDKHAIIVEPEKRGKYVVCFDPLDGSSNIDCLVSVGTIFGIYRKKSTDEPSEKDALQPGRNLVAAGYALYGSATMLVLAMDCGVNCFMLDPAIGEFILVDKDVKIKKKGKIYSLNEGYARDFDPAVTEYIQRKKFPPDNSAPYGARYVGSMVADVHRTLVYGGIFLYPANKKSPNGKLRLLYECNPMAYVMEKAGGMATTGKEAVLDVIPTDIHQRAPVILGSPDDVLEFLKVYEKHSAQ

[2] = target: T1, Fructose-1,6-bisphosphatase 1; test: Inhibition of human liver fructose-1,6-bisphosphatase in presence of fructose-2,6-bisphosphate
[3] = Dissociation constant, pKa of the compound; format: physicochemical
[4] = Lipophilicity, Log D at pH 7.4; format: physicochemical; conditions: buffer
[5] = Half life in mouse at 9.68 mg/kg, po; format: ADME, organism-based; parameters: dose 9.68 mg/kg, route oral; conditions: in vivo
[6] = Bioavailability in mouse at 9.68 mg/kg, po; format: ADME, organism-based; conditions: in vivo
[7] = Half life in mouse at 10 mg/kg, po; format: ADME, organism-based; parameters: dose 10 mg/kg, route oral; conditions: in vivo
[8] = Bioavailability in mouse at 10 mg/kg, po; format: ADME, organism-based; conditions: in vivo

| Compound | IC50 [1] [µM] | IC50 [2] [µM] | also measured |
| --- | --- | --- | --- |
| O=C(NC[C@H]1CC[C@H](CNC(=O)NS(=O)(=O)c2cccc(Cl)c2)CC1)NS(=O)(=O)c1cccc(Cl)c1 | 0.028 | 0.016 |  |
| Cc1cccc(S(=O)(=O)NC(=O)NCc2cccc(CNC(=O)NS(=O)(=O)c3cccc(C)c3)c2)c1 | 0.012 | 0.006 |  |
| O=C(NCC/C=C/CCNC(=O)NS(=O)(=O)c1cccc(Cl)c1)NS(=O)(=O)c1cccc(Cl)c1 | 0.04 | 0.014 |  |
| CCCNC(=O)NS(=O)(=O)c1cccc(C)c1 | > 1000 | 320 |  |
| Cc1cccc(S(=O)(=O)NC(=O)NCCCCCCCCNC(=O)NS(=O)(=O)c2cccc(C)c2)c1 | 0.035 | 0.008 |  |
| Cc1cccc(S(=O)(=O)NC(=O)NCCC#CCCNC(=O)NS(=O)(=O)c2cccc(C)c2)c1 | 0.095 | 0.012 |  |
| Cc1cccc(S(=O)(=O)NC(=O)NCC/C=C/CCNC(=O)NS(=O)(=O)c2cccc(C)c2)c1 | 0.068 | 0.028 |  |
| Cc1cccc(S(=O)(=O)NC(=O)NCCSSCCNC(=O)NS(=O)(=O)c2cccc(C)c2)c1 | 0.029 | 0.012 |  |
| O=C(NCCCNCCCNC(=O)NS(=O)(=O)c1cccc(Cl)c1)NS(=O)(=O)c1cccc(Cl)c1 | 43.8 | 13.7 |  |
| CCCNC(=O)NS(=O)(=O)c1cccc(Cl)c1 | 690 | 234 |  |
| Nc1ccc(S(=O)(=O)NC(=O)NCCS)cc1 | 1.6 |  |  |
| Cc1cccc(S(=O)(=O)NC(=O)NCCS)c1 | 20.5 | 10.6 |  |
| O=C(NCCCCCCNC(=O)NS(=O)(=O)c1cccc(Cl)c1)NS(=O)(=O)c1cccc(Cl)c1 |  | 0.008 | pKa [3]: 5.35; half-life [5]: 1.83 h; bioavailability [6]: 108%; logD [4]: -0.93 |
| CSCCNC(=O)NS(=O)(=O)c1cccc(Cl)c1 | 515 | 277 |  |
| Cc1cccc(S(=O)(=O)NC(=O)NCCCCCCCNC(=O)NS(=O)(=O)c2cccc(C)c2)c1 | 0.012 | 0.005 | half-life [7]: 3 h; bioavailability [8]: 100% |
| CCCCNC(=O)NS(=O)(=O)c1cccc(Cl)c1 | 196 | 134 |  |
| Cc1cccc(S(=O)(=O)NC(=O)NCCCCCCNC(=O)NS(=O)(=O)c2cccc(C)c2)c1 | 0.024 | 0.012 |  |
| Cc1cccc(S(=O)(=O)NC(=O)NCCCNC(=O)NS(=O)(=O)c2cccc(C)c2)c1 | > 100 | 38.5 |  |
| Cc1cccc(S(=O)(=O)NC(=O)NCCOCCNC(=O)NS(=O)(=O)c2cccc(C)c2)c1 | 0.827 | 0.151 |  |
| Cc1cccc(S(=O)(=O)NC(=O)NCCSCCNC(=O)NS(=O)(=O)c2cccc(C)c2)c1 | 0.07 | 0.018 |  |
| O=C(NCCCOCCCNC(=O)NS(=O)(=O)c1cccc(Cl)c1)NS(=O)(=O)c1cccc(Cl)c1 | 0.125 | 0.057 |  |
| Cc1cccc(S(=O)(=O)NC(=O)NCc2ccc(CNC(=O)NS(=O)(=O)c3cccc(C)c3)cc2)c1 | 0.003 | 0.002 |  |
| O=C(NCc1ccc(CNC(=O)NS(=O)(=O)c2cccc(Cl)c2)cc1)NS(=O)(=O)c1cccc(Cl)c1 | 0.006 | 0.004 |  |

The next lines start with results.

| IC50 [1] [µM] | IC50 [2] [µM] | Compound | also measured |
| --- | --- | --- | --- |
| 0.05 | 0.019 | O=C(NCCCCCNC(=O)NS(=O)(=O)c1cccc(Cl)c1)NS(=O)(=O)c1cccc(Cl)c1 |  |
| > 100 | > 100 | Cc1cccc(S(=O)(=O)NC(=O)NCCNCCNC(=O)NS(=O)(=O)c2cccc(C)c2)c1 |  |
| 0.045 | 0.017 | O=C(NCCCCCCCCNC(=O)NS(=O)(=O)c1cccc(Cl)c1)NS(=O)(=O)c1cccc(Cl)c1 |  |
|  | 0.004 | O=C(NCCCCCCCNC(=O)NS(=O)(=O)c1cccc(Cl)c1)NS(=O)(=O)c1cccc(Cl)c1 | pKa [3]: 5.12; logD [4]: -0.43 |
| > 100 | > 100 | Cc1cccc(S(=O)(=O)NC(=O)NCCNC(=O)NS(=O)(=O)c2cccc(C)c2)c1 |  |
| 2.75 | 0.264 | O=C(NCCCCNC(=O)NS(=O)(=O)c1cccc(Cl)c1)NS(=O)(=O)c1cccc(Cl)c1 |  |
| 3.4 | 0.542 | Cc1cccc(S(=O)(=O)NC(=O)NCCCCNC(=O)NS(=O)(=O)c2cccc(C)c2)c1 |  |
| 0.072 | 0.022 | Cc1cccc(S(=O)(=O)NC(=O)NCCCCCNC(=O)NS(=O)(=O)c2cccc(C)c2)c1 |  |
| 0.055 | 0.01 | O=C(NCCSSCCNC(=O)NS(=O)(=O)c1cccc(Cl)c1)NS(=O)(=O)c1cccc(Cl)c1 |  |
| 178 | 86.8 | CCCCNC(=O)NS(=O)(=O)c1cccc(C)c1 |  |
